Laboratory results reported in article PMC10763615, “Identification and engineering of potent cyclic peptides with selective or promiscuous binding through biochemical profiling and bioinformatic data analysis” (RSC Chemical Biology, 2023).
Where two headings read alike, the source gives them in different places.

Columns and labels:
[1] = biological target: T1, FGF-R4 ECD (Homo sapiens, UniProt P22455); assay: single concentration BLI of crude peptides; assay type: binding; conditions: read-out: KD (4)
T1 construct: DNA constructs for the extracellular domain (ECD) of human FGF-; HPC4 (C); made in house; host or cells: HEK 293-6E
T1 sequence (P22455 22-369 limits assumed): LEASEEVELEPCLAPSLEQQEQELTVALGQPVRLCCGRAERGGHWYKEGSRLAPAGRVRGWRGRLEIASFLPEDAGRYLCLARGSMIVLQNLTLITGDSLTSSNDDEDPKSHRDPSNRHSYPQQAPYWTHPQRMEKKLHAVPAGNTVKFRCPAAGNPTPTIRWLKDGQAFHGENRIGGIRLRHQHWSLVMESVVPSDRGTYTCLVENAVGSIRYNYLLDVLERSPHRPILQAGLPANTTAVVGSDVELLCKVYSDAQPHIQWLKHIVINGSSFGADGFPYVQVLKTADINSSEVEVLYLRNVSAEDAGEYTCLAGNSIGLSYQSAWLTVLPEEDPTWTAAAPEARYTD
How it was run: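 BLI, streptavidin sensors loaded with biotinylated receptor ECD. Single-point: ~1 μM crude peptide, PBS pH7.4/0.05% Tween-20/0.01% BSA; association then dissociation in buffer. KD corrected for UPLC-CAD-determined concentration.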

[2] = biological target: T2, FGF-R1C ECD (Homo sapiens, UniProt P11362); assay: biochemical
T2 sequence (P11362 22-376 limits assumed): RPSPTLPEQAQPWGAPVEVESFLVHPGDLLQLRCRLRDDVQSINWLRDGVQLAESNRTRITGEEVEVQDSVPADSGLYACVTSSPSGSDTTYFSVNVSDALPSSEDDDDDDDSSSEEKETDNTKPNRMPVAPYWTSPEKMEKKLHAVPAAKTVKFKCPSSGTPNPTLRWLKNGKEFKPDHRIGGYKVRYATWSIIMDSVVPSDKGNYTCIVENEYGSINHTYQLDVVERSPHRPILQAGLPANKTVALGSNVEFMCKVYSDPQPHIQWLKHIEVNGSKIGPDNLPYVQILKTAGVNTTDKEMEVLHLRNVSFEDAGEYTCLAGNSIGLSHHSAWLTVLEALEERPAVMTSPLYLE
Method: (§1) KD affinity binding measurements were obtained by biolayer interferometry (BLI) instruments (Fortebio Octet HTX, or Sartorius Octet RH16 using either 8 or 16 channel mode.
(§2) For single concentration binding experiments, 50 μM peptide stocks in folding buffer were diluted 1:50 in mRNA display selection buffer (PBS pH7.4 supplemented with 0.05% Tween-20 and 0.01% BSA) in either a 96 well black plate, or a 384 well tilted bottom microplate (ForteBio). Biotinylated FGF-R protein was loaded onto Streptavidin-functionalised biosensors (ForteBio) and immersed into ~1 μM peptide to obtain association kinetics curves. Dissociation kinetics curves were obtained by subsequent immersion of ligand-associated loaded sensors into a 1:50 dilution of folding buffer in mRNA display selection buffer. Fitted KD data was adjusted for concentration as determined by UPLC-CAD.
(§3) For accurate multi-concentration KD determination, dilution series of each peptide were made, and association and dissociation kinetics curves were obtained as above for each concentration to fit a multi-point KD binding model. Data collection and analysis was performed using the Octet Instrument Control […]
(§4) concentration assay kinetics curves shown in supplementary Figure S 19-24.

[3] = biological target: T3, FGF-R3C ECD (Homo sapiens, UniProt P22607); assay: biochemical
T3 sequence (P22607 23-375 limits assumed): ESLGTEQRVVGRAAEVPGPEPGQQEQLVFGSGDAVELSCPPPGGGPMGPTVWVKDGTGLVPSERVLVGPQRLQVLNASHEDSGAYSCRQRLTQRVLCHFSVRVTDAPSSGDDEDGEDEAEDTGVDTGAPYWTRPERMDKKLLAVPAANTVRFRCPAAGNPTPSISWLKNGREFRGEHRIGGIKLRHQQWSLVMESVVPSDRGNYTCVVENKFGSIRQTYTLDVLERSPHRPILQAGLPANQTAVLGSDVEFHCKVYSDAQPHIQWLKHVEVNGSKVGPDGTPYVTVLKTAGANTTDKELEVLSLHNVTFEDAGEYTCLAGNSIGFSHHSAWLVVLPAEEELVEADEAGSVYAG
Method: as §1, §2, §3, §4

[4] = biological target: T1, FGF-R4 ECD; assay: multi-concentration BLI of purified peptides; assay type: binding
Method: as §1, §2, §3, §4

[5] = biological target: T2, FGF-R1C ECD; assay: biochemical; assay type: binding; parameters: DNA constructs for the extracellular domain (ECD) of human FGF-; HPC4 (C); made in house; host or cells: HEK 293-6E
How it was run: (§5)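 Biolayer interferometry with biotinylated FGF-R ECD on streptavidin biosensors in PBS pH 7.4, 0.05% Tween-20, 0.01% BSA. Multi-concentration: purified peptide dilution series fitted to a multi-point KD model.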

[6] = biological target: T3, FGF-R3C ECD; assay: biochemical; assay type: binding; parameters: DNA constructs for the extracellular domain (ECD) of human FGF-; HPC4 (C); made in house; host or cells: HEK 293-6E
How it was run: as §5

[7] = crude T18 selection 1 (1:1:1) peptides, single concentration BLI (Table S4)
[8] = purified trimer-18 library peptides

Row | SMILES | Kd [1, 7] [nM] | Kd [2] [nM] | Kd [3] [nM] | Kd [4, 8] [nM] | Kd [5] [nM] | Kd [6] [nM] | Kd ([1]; crude NNK peptides, single concentration BLI (Table S3)) [nM] | Kd ([4]; purified NNK library peptides) [nM] | Kd ([2]; read-out: R1C KD, purified trimer-18 library peptides, multi-concentration BLI) [nM] | Kd ([3]; read-out: R3C KD, purified trimer-18 library peptides, multi-concentration BLI) [nM] | Kd ([5]; read-out: KD (1C)) [nM] | Kd ([6]; read-out: KD(3C)) [nM]
1 | CSCC[C@H](NC(C)=O)C(=O)N[C@H]1CSSC[C@@H](C(=O)NCC(=O)N[C@@H](CO)C(=O)NCC(=O)N[C@@H](CO)C(=O)N[C@@H](CC(=O)O)C(=O)N[C@@H](Cc2ccc(O)cc2)C(=O)N[C@@H](CCCCN)C(=O)N[C@@H](CC(=O)O)C(=O)N[C@@H](CC(=O)O)C(=O)N[C@@H](CC(=O)O)C(=O)N[C@@H](CC(=O)O)C(=O)N[C@@H](CCCCN)C(N)=O)NC(=O)[C@H]([C@@H](C)O)NC(=O)[C@H](C(C)C)NC(=O)[C@H](CC(C)C)NC(=O)[C@H](CC(C)C)NC(=O)[C@H](Cc2c[nH]c3ccccc23)NC(=O)[C@H](Cc2ccc(O)cc2)NC(=O)[C@H](CC(C)C)NC(=O)[C@H](C(C)C)NC(=O)[C@H](CCC(=O)O)NC(=O)[C@H](CCCNC(=N)N)NC(=O)[C@H](CCC(=O)O)NC1=O [4.15] | 128 | > 1000 | > 1000 | 378 | 48 | > 10000 |  |  |  |  |  | 
2 | CSCC[C@H](NC(C)=O)C(=O)N[C@H]1CSSC[C@@H](C(=O)NCC(=O)N[C@@H](CO)C(=O)NCC(=O)N[C@@H](CO)C(=O)N[C@@H](CC(=O)O)C(=O)N[C@@H](Cc2ccc(O)cc2)C(=O)N[C@@H](CCCCN)C(=O)N[C@@H](CC(=O)O)C(=O)N[C@@H](CC(=O)O)C(=O)N[C@@H](CC(=O)O)C(=O)N[C@@H](CC(=O)O)C(=O)N[C@@H](CCCCN)C(N)=O)NC(=O)[C@H](CCCNC(=N)N)NC(=O)[C@H](CC(C)C)NC(=O)[C@H](CCCCN)NC(=O)[C@H]([C@@H](C)O)NC(=O)[C@H](C(C)C)NC(=O)[C@H](CCCCN)NC(=O)[C@H](Cc2ccc(O)cc2)NC(=O)[C@H](Cc2c[nH]c3ccccc23)NC(=O)[C@H]([C@@H](C)O)NC(=O)[C@H](C(C)C)NC1=O [4.4] |  | > 1000 | > 1000 |  | > 10000 | > 10000 | 57 | > 1000 |  |  |  | 
3 | CSCC[C@H](NC(C)=O)C(=O)N[C@H]1CSSC[C@@H](C(=O)NCC(=O)N[C@@H](CO)C(=O)NCC(=O)N[C@@H](CO)C(=O)N[C@@H](CC(=O)O)C(=O)N[C@@H](Cc2ccc(O)cc2)C(=O)N[C@@H](CCCCN)C(=O)N[C@@H](CC(=O)O)C(=O)N[C@@H](CC(=O)O)C(=O)N[C@@H](CC(=O)O)C(=O)N[C@@H](CC(=O)O)C(=O)N[C@@H](CCCCN)C(N)=O)NC(=O)[C@H](CC(C)C)NC(=O)[C@H](CCC(N)=O)NC(=O)[C@H](Cc2c[nH]c3ccccc23)NC(=O)[C@H](CCCCN)NC(=O)[C@H](CCC(=O)O)NC(=O)[C@H](Cc2c[nH]c3ccccc23)NC(=O)[C@H](CC(N)=O)NC(=O)[C@H](Cc2ccc(O)cc2)NC(=O)[C@H](Cc2ccccc2)NC(=O)[C@H](CCCNC(=N)N)NC(=O)[C@H]([C@@H](C)O)NC(=O)[C@H](Cc2ccc(O)cc2)NC1=O [4.13] | > 10000 | > 1000 | > 1000 | > 1000 | 17 | > 10000 |  |  |  |  |  | 
4 | CSCC[C@H](NC(C)=O)C(=O)N[C@H]1CSSC[C@@H](C(=O)NCC(=O)N[C@@H](CO)C(=O)NCC(=O)N[C@@H](CO)C(=O)N[C@@H](CCC(=O)O)C(=O)N[C@@H](CCC(=O)O)C(=O)NCC(=O)N[C@@H](CO)C(=O)NCC(=O)N[C@@H](CO)C(=O)N[C@@H](CC(=O)O)C(=O)N[C@@H](Cc2ccc(O)cc2)C(=O)N[C@@H](CCCCN)C(=O)N[C@@H](CC(=O)O)C(=O)N[C@@H](CC(=O)O)C(=O)N[C@@H](CC(=O)O)C(=O)N[C@@H](CC(=O)O)C(=O)N[C@@H](CCCCN)C(N)=O)NC(=O)[C@H](CCCCN)NC(=O)[C@H](CCCCN)NC(=O)[C@H](Cc2c[nH]c3ccccc23)NC(=O)[C@H](CC(C)C)NC(=O)[C@H](CC(C)C)NC(=O)[C@H](Cc2ccc(O)cc2)NC(=O)[C@H](Cc2ccc(O)cc2)NC(=O)[C@H](Cc2ccc(O)cc2)NC(=O)[C@H](CC(C)C)NC(=O)[C@H](Cc2c[nH]cn2)NC(=O)[C@H](CCCCN)NC1=O [4.10] | 1 |  |  | 2 |  |  |  |  | > 1000 | 519 | 1030 | 928
5 | CSCC[C@H](NC(C)=O)C(=O)N[C@H]1CSSC[C@@H](C(=O)NCC(=O)N[C@@H](CO)C(=O)NCC(=O)N[C@@H](CO)C(=O)N[C@@H](CC(=O)O)C(=O)N[C@@H](Cc2ccc(O)cc2)C(=O)N[C@@H](CCCCN)C(=O)N[C@@H](CC(=O)O)C(=O)N[C@@H](CC(=O)O)C(=O)N[C@@H](CC(=O)O)C(=O)N[C@@H](CC(=O)O)C(=O)N[C@@H](CCCCN)C(N)=O)NC(=O)[C@H](CCCNC(=N)N)NC(=O)[C@H](CCCNC(=N)N)NC(=O)[C@H](Cc2c[nH]cn2)NC(=O)[C@H](CO)NC(=O)[C@H](CC(C)C)NC(=O)[C@H](CC(C)C)NC(=O)[C@H](Cc2ccc(O)cc2)NC(=O)[C@H](Cc2ccc(O)cc2)NC(=O)[C@H](Cc2ccc(O)cc2)NC(=O)[C@H](CC(C)C)NC(=O)[C@H](Cc2c[nH]cn2)NC(=O)[C@H](CCC(=O)O)NC1=O [4.23] |  | > 1000 | > 1000 | 3 |  |  |  |  |  |  |  | 
6 | CC[C@H](C)[C@@H]1NC(=O)[C@H](Cc2c[nH]c3ccccc23)NC(=O)[C@H](Cc2ccc(O)cc2)NC(=O)[C@H](CCCCN)NC(=O)[C@H](C(C)C)NC(=O)[C@H](Cc2c[nH]c3ccccc23)NC(=O)[C@H](Cc2ccc(O)cc2)NC(=O)[C@H](CCCCN)NC(=O)[C@H](CC(=O)O)NC(=O)[C@@H](NC(=O)[C@H](CCSC)NC(C)=O)CSSC[C@@H](C(=O)NCC(=O)N[C@@H](CO)C(=O)NCC(=O)N[C@@H](CO)C(=O)N[C@@H](CC(=O)O)C(=O)N[C@@H](Cc2ccc(O)cc2)C(=O)N[C@@H](CCCCN)C(=O)N[C@@H](CC(=O)O)C(=O)N[C@@H](CC(=O)O)C(=O)N[C@@H](CC(=O)O)C(=O)N[C@@H](CC(=O)O)C(=O)N[C@@H](CCCCN)C(N)=O)NC(=O)[C@H](CCCNC(=N)N)NC(=O)[C@H](Cc2c[nH]c3ccccc23)NC(=O)[C@H](C)NC1=O [4.21] |  | 773 | 509 | 411 |  |  |  |  |  |  |  | 
